The nature of one series: CHI Log D procedure. The class given is physicochemical. Particulars: pH 7.4.
Series [1] has as its target T1, full-length beta-Catenin (Uniprot ID P35222) (Homo sapiens, UniProt P35222).
T1 construct: 10 nM full-length beta-Catenin (Uniprot ID P35222)
T1 sequence (P35222 1-781): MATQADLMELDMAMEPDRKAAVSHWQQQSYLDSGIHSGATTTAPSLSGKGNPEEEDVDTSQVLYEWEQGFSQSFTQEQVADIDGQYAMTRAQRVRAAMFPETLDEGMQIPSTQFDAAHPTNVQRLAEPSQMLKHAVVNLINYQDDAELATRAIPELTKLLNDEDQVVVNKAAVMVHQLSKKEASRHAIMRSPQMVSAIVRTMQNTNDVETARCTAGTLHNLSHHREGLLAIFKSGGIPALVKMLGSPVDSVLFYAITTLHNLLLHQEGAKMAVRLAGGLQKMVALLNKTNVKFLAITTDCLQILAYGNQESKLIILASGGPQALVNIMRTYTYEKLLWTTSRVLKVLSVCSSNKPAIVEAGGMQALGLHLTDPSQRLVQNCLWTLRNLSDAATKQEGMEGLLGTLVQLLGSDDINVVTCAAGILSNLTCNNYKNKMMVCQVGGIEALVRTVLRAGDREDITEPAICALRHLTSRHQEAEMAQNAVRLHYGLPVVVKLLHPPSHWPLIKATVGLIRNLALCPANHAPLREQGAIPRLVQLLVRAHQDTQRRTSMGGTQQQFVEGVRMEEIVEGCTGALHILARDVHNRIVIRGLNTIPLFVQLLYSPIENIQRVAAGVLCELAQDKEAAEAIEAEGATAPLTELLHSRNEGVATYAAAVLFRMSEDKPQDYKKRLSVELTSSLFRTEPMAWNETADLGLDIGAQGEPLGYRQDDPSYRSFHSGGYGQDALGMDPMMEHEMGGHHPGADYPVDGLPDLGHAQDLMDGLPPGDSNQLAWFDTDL
The experiment in a line: Fluorescence polarization IC50 (beta-catenin / 5FAM-TCF4 10-53 competition). The class given is binding. A general note: Fluorescence polarisation rises when a labelled molecule tumbles more slowly, as on binding a larger partner.

[2] abbreviates: fluorescence polarization, read-out: beta-Catenin FP IC50.

Like-named read-outs stand apart in the source and are kept apart here.

As to `CC(=O)N1CCC[C@]12CC=CCCCC1(CCCC=CCCCOC(=O)N3CC[C@@](C(=O)N[C@@H](Cc4ccsc4)C(=O)N[C@@H](Cc4csc5ccccc45)C(=O)N[C@@H](Cc4c[nH]cn4)C(N)=O)(C3)NC(=O)[C@H](CC(N)=O)NC(=O)[C@H](Cc3ccccc3)NC(=O)[C@H](C)NC(=O)[C@H](C)NC(=O)[C@H](CC(=O)O)NC(=O)[C@H](CC(=O)O)NC1=O)NC(=O)[C@H](CC(C)(C)C)NC(=O)[C@H](CC(=O)O)NC2=O` (stereo partly drawn) [I-695, Ac-PL3-Asp-Npg-B5-Asp-Asp-Ala-Ala-Phe-Asn-PyrS2-3Thi-BztA-His-NH2], the “CHI Log D” value in the series “CHI Log D procedure” stood at 2.117. Besides, the IC50 in series [1] (setting [2]) stood at 5 nM.
As to `CC[C@H](C)[C@@H]1NC(=O)[C@H](CC(=O)O)NC(=O)[C@]2(CC=CCCCC3(CCCC=CCCCCCC[C@@](C)(C(=O)N[C@@H](Cc4ccsc4)C(=O)N[C@@H](Cc4csc5ccccc45)C(=O)N[C@@H](CCC(N)=O)C(N)=O)NC(=O)[C@H](CC(N)=O)NC(=O)[C@H](Cc4ccccc4)NC(=O)[C@H](C)NC(=O)[C@H](C)NC(=O)[C@H](CN(CC(=O)O)CC(F)(F)F)NC(=O)[C@H](CC(=O)O)NC3=O)NC1=O)CCCN2C(C)=O` (stereo partly drawn) [I-700, Ac-PL3-Asp-Ile-B5-Asp-TfeGA-Ala-Ala-Phe-Asn-S8-3Thi-BztA-Gln-NH2], the “CHI Log D” value in the series “CHI Log D procedure” is given as 2.607. Also, the IC50 in series [1] (setting [2]) and in series [1] (read-out: FP EC50) was 49 nM in each case.
Take `CC(=O)N1CCC[C@]12CC=CCCCC1(CCCC=CCCCCCC[C@@](C)(C(=O)N[C@@H](Cc3ccccc3)C(=O)N[C@@H](Cc3csc4ccccc34)C(=O)N[C@@H](CCC(N)=O)C(=O)N[C@@H](C)C(N)=O)NC(=O)[C@H](CC(N)=O)NC(=O)[C@H](Cc3ccccc3)NC(=O)[C@H](C)NC(=O)[C@H](C)NC(=O)[C@H](CCC(=O)O)NC(=O)[C@H](CC(=O)O)NC1=O)NC(=O)[C@H](CC(C)C)NC(=O)[C@H](CC(=O)O)NC2=O` (stereo partly drawn) [I-729, Ac-PL3-Asp-Leu-B5-Asp-Glu-Ala-Ala-Phe-Asn-S8-Phe-BztA-Gln-Ala-NH2]: the “CHI Log D” value in “CHI Log D procedure” worked out at 2.366. Further, the IC50 in series [1] (setting [2]) and in series [1] (read-out: FP EC50) was 56 nM in each case.
In the case of `CC[C@H](C)[C@H](NC(=O)[C@H](CCC(N)=O)NC(=O)[C@H](Cc1csc2ccccc12)NC(=O)[C@H](Cc1ccccc1)NC(=O)[C@]1(C)CCCCCCC=CCCCC2(CCCC=CC[C@]3(CCCN3C(C)=O)C(=O)N[C@@H](CC(=O)O)C(=O)N[C@@H](CC(C)C)C(=O)N2)C(=O)N[C@@H](CC(=O)O)C(=O)N[C@@H](CCC(=O)O)C(=O)N[C@@H](C)C(=O)N[C@@H](C)C(=O)N[C@@H](Cc2ccccc2)C(=O)N[C@@H](CC(N)=O)C(=O)N1)C(N)=O` (stereo partly drawn) [I-732, Ac-PL3-Asp-Leu-B5-Asp-Glu-Ala-Ala-Phe-Asn-S8-Phe-BztA-Gln-Ile-NH2], in the series “CHI Log D procedure”, the “CHI Log D” value is given as 2.121. For the same compound, the IC50 in series [1] (setting [2]) and in series [1] (read-out: FP EC50) was 4220 nM each time.
With `CC[C@@H](C)[C@@H](NC(=O)[C@H](CCC(N)=O)NC(=O)[C@H](Cc1csc2ccccc12)NC(=O)[C@H](Cc1ccccc1)NC(=O)[C@]1(C)CCCCCCC=CCCCC2(CCCC=CC[C@]3(CCCN3C(C)=O)C(=O)N[C@@H](CC(=O)O)C(=O)N[C@@H](CC(C)C)C(=O)N2)C(=O)N[C@@H](CC(=O)O)C(=O)N[C@@H](CCC(=O)O)C(=O)N[C@@H](C)C(=O)N[C@@H](C)C(=O)N[C@@H](Cc2ccccc2)C(=O)N[C@@H](CC(N)=O)C(=O)N1)C(N)=O` (stereo partly drawn) [I-734, Ac-PL3-Asp-Leu-B5-Asp-Glu-Ala-Ala-Phe-Asn-S8-Phe-BztA-Gln-dIle-NH2], the “CHI Log D” value in “CHI Log D procedure” is 2.713. Further, the IC50 in series [1] (setting [2]) and in series [1] (read-out: FP EC50) was 370 nM in each case.
For `CC(=O)N1CCC[C@]12CC=CCCCC1(CCCC=CCCCCCC[C@@](C)(C(=O)N[C@@H](Cc3ccccc3)C(=O)N[C@@H](Cc3csc4ccccc34)C(=O)N[C@@H](CCC(N)=O)C(=O)NC(C)(C)C(N)=O)NC(=O)[C@H](CC(N)=O)NC(=O)[C@H](Cc3ccccc3)NC(=O)[C@H](C)NC(=O)[C@H](C)NC(=O)[C@H](CCC(=O)O)NC(=O)[C@H](CC(=O)O)NC1=O)NC(=O)[C@H](CC(C)C)NC(=O)[C@H](CC(=O)O)NC2=O` (stereo partly drawn) [I-736, Ac-PL3-Asp-Leu-B5-Asp-Glu-Ala-Ala-Phe-Asn-S8-Phe-BztA-Gln-Aib-NH2], the “CHI Log D” value in the series “CHI Log D procedure” turned out to be 2.722. For the same compound, the IC50 in series [1] (setting [2]) and in series [1] (read-out: FP EC50) was 440 nM each time.
In the case of `CC[C@H](C)[C@H](NC(=O)[C@H](Cc1c[nH]cn1)NC(=O)[C@H](Cc1csc2ccccc12)NC(=O)[C@H](Cc1ccccc1)NC(=O)[C@]1(C)CCCCCCC=CCCCC2(CCCC=CC[C@]3(CCCN3C(C)=O)C(=O)N[C@@H](CC(=O)O)C(=O)N[C@@H](CC(C)C)C(=O)N2)C(=O)N[C@@H](CC(=O)O)C(=O)N[C@@H](CCC(=O)O)C(=O)N[C@@H](C)C(=O)N[C@@H](C)C(=O)N[C@@H](Cc2ccccc2)C(=O)N[C@@H](CC(N)=O)C(=O)N1)C(N)=O` (stereo partly drawn) [I-740, Ac-PL3-Asp-Leu-B5-Asp-Glu-Ala-Ala-Phe-Asn-S8-Phe-BztA-His-Ile-NH2], in “CHI Log D procedure”, the “CHI Log D” value was 2.822. The IC50 in series [1] (setting [2]) and in series [1] (read-out: FP EC50) was 376 nM throughout.
Regarding `CC(=O)N1CCC[C@]12CC=CCCCC1(CCCC=CCCCCCC[C@@](C)(C(=O)N[C@@H](Cc3ccccc3)C(=O)N[C@@H](Cc3csc4ccccc34)C(=O)N[C@H](Cc3c[nH]cn3)C(N)=O)NC(=O)[C@H](CC(N)=O)NC(=O)[C@H](Cc3ccccc3)NC(=O)[C@H](C)NC(=O)[C@H](C)NC(=O)[C@H](CCC(=O)O)NC(=O)[C@H](CC(=O)O)NC1=O)NC(=O)[C@H](CC(C)C)NC(=O)[C@H](CC(=O)O)NC2=O` (stereo partly drawn) [I-744, Ac-PL3-Asp-Leu-B5-Asp-Glu-Ala-Ala-Phe-Asn-S8-Phe-BztA-dHis-NH2], the “CHI Log D” value in “CHI Log D procedure” is given as 2.557. The IC50 in series [1] (setting [2]) and in series [1] (read-out: FP EC50) was 112 nM in each case.
As for `CC(=O)N1CCC[C@]12CC=CCCCC1(CCCC=CCCCCCC[C@@](C)(C(=O)N[C@@H](Cc3ccccc3)C(=O)N[C@@H](Cc3csc4ccccc34)C(=O)N[C@H](C(N)=O)[C@@H](C)O)NC(=O)[C@H](CC(N)=O)NC(=O)[C@H](Cc3ccccc3)NC(=O)[C@H](C)NC(=O)[C@H](C)NC(=O)[C@H](CCC(=O)O)NC(=O)[C@H](CC(=O)O)NC1=O)NC(=O)[C@H](CC(C)C)NC(=O)[C@H](CC(=O)O)NC2=O` (stereo partly drawn) [I-748, Ac-PL3-Asp-Leu-B5-Asp-Glu-Ala-Ala-Phe-Asn-S8-Phe-BztA-Thr-NH2], the “CHI Log D” value in the series “CHI Log D procedure” is given as 2.459. Moreover, the IC50 in series [1] (setting [2]) and in series [1] (read-out: FP EC50) was 54 nM in each case.
Consider `CC(=O)N1CCC[C@]12CC=CCCCC1(CCCC=CCCCCCC[C@@](C)(C(=O)N[C@@H](Cc3ccccc3)C(=O)N[C@@H](Cc3csc4ccccc34)C(=O)N[C@@H](C(N)=O)[C@H](C)O)NC(=O)[C@H](CC(N)=O)NC(=O)[C@H](Cc3ccccc3)NC(=O)[C@H](C)NC(=O)[C@H](C)NC(=O)[C@H](CCC(=O)O)NC(=O)[C@H](CC(=O)O)NC1=O)NC(=O)[C@H](CC(C)C)NC(=O)[C@H](CC(=O)O)NC2=O` (stereo partly drawn) [I-754, Ac-PL3-Asp-Leu-B5-Asp-Glu-Ala-Ala-Phe-Asn-S8-Phe-BztA-dThr-NH2], for which the “CHI Log D” value in the series “CHI Log D procedure” amounted to 2.666. Moreover, the IC50 in series [1] (read-out: FP EC50) and in series [1] (read-out: beta-Catenin FP IC50) was 115 nM each time.

(Values after patent publication US20240116985A1, “STAPLED PEPTIDES AND METHODS THEREOF” (priority 2020, published 2024).)
